From patent US20260262643A1, “HERBICIDAL BENZOXAZINES” (FMC CORPORATION, priority 2022, published 2026)

Assays:
blackgrass [1] = assay: Test C postemergence; type: in vivo, Alopecurus myosuroides; details: 10 days, 0 to 100 scale (0 no effect, 100 complete control)
Procedure, shortened: (§1)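 Visual injury score, 0–100 (100 = complete control), taken 10 days after treatment relative to untreated controls. Pre: directed spray onto soil over sown seeds. Post: foliar spray at one- to two-leaf stage, 2–10 cm. Solvent/surfactant formulation; loam–sand soil; greenhouse.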

oat, wild [2] = assay: Test C preemergence; type: in vivo, Avena fatua
Procedure, shortened: as §1

wheat [3] = assay: Test C postemergence; type: in vivo, Triticum aestivum; details: 10 days, 0 to 100 scale (0 no effect, 100 complete control)
Procedure, shortened: as §1

sedge, umbrella = assay: Test D flooded paddy test; type: in vivo, Cyperus difformis; details: 250 g ai/ha, applied to paddy water, visual rating after 13 to 14 days, scale 0 to 100 (0 no effect, 100 complete control)
Procedure, shortened: (§2)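 Compounds go straight into paddy water over 2-leaf plants in pots flooded to 3 cm. Greenhouse holding lasts 13 to 14 days. Injury is scored by eye against controls from 0 (none) to 100 (complete control).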

horseweed = assay: Test C postemergence; type: in vivo, Erigeron canadensis; details: 10 days, 0 to 100 scale (0 no effect, 100 complete control)
Procedure, shortened: as §1

kochia [4] = assay: Test C preemergence; type: in vivo, Bassia scoparia
Procedure, shortened: as §1

kochia [5] = assay: Test C postemergence; type: in vivo, Bassia scoparia; details: 10 days, 0 to 100 scale (0 no effect, 100 complete control)
Procedure, shortened: as §1

galium = assay: Test C postemergence; type: in vivo, Galium aparine; details: 10 days, 0 to 100 scale (0 no effect, 100 complete control)
Procedure, shortened: as §1

wheat [6] = assay: Test C preemergence; type: in vivo, Triticum aestivum
Procedure, shortened: as §1

pigweed, palmer [7] = assay: Test C preemergence; type: in vivo, Amaranthus palmeri
Procedure, shortened: as §1

barnyardgrass [8] = assay: Test C postemergence; type: in vivo, Echinochloa crusgalli; details: 10 days, 0 to 100 scale (0 no effect, 100 complete control)
Procedure, shortened: as §1

blackgrass [9] = assay: Test C preemergence; type: in vivo, Alopecurus myosuroides
Procedure, shortened: as §1

barnyardgrass [10] = assay: Test C preemergence; type: in vivo, Echinochloa crusgalli
Procedure, shortened: as §1

rice = assay: Test D flooded paddy test; type: in vivo, Oryza sativa; details: 250 g ai/ha, applied to paddy water, visual rating after 13 to 14 days, scale 0 to 100 (0 no effect, 100 complete control)
Procedure, shortened: as §2

foxtail, giant [11] = assay: Test C preemergence; type: in vivo, Setaria faberi
Excerpt: (§3) Seeds of plant species selected from barnyardgrass (Echinochloa crusgalli), blackgrass (Alopecurus myosuroides), corn (Zea mays), foxtail, giant (giant foxtail, Setaria faberi), green foxtail (Setaria viridis), goosegrass (Eleusine indica), kochia (Bassia scoparia), oat, wild (wild oat, Avena fatua), pigweed, palmer (palmer amaranth, palmer pigweed, Amaranthus palmeri), Pigweed, Redroot (redroot pigweed, Amaranthus retroflexus), ragweed (common ragweed, Ambrosia artemisiifolia), ryegrass, Italian ([…] ryegrass, Lolium multiflorum), soybean (Glycine max), and wheat (Triticum aestivum) were planted into a blend of loam soil and sand and treated preemergence with a directed soil spray using test chemicals formulated in a non-phytotoxic solvent mixture which included a surfactant. At the same time, plants selected from these crops and weed species and also galium (catchweed bedstraw, Galium aparine) and horseweed (Erigeron canadensis) were planted in pots containing the same blend of loam soil and sand and treated with postemergence applications of test chemicals formulated in the same manner. Plants ranged in height from 2 to 10 cm and were in the one- to two-leaf stage for the postemergence treatment. Treated plants and untreated controls were maintained in a greenhouse for 10 days, after which time all treated plants were compared to untreated controls and visually evaluated for injury. Plant response ratings, summarized in Table C, are based on a 0 to 100 scale where 0 is no effect and 100 is complete control. A dash (-) response means no test result.

soybean [12] = assay: Test C postemergence; type: in vivo, Glycine max; details: 10 days, 0 to 100 scale (0 no effect, 100 complete control)
Procedure, shortened: as §1

soybean [13] = assay: Test C preemergence; type: in vivo, Glycine max
Procedure, shortened: as §1

pigweed, palmer [14] = assay: Test C postemergence; type: in vivo, Amaranthus palmeri; details: 10 days, 0 to 100 scale (0 no effect, 100 complete control)
Procedure, shortened: as §1

oat, wild [15] = assay: Test C postemergence; type: in vivo, Avena fatua; details: 10 days, 0 to 100 scale (0 no effect, 100 complete control)
Procedure, shortened: as §1

barnyardgrass [16] = assay: Test D flooded paddy test; type: in vivo, Echinochloa crus-galli; details: 250 g ai/ha, applied to paddy water, visual rating after 13 to 14 days, scale 0 to 100 (0 no effect, 100 complete control)
Procedure, shortened: as §2

corn [17] = assay: Test C preemergence; type: in vivo, Zea mays
Procedure, shortened: as §1

ryegrass, Italian [18] = assay: Test C preemergence; type: in vivo, Lolium multiflorum
Procedure, shortened: as §1

ryegrass, Italian [19] = assay: Test C postemergence; type: in vivo, Lolium multiflorum; details: 10 days, 0 to 100 scale (0 no effect, 100 complete control)
Procedure, shortened: as §1

ragweed [20] = assay: Test C postemergence; type: in vivo, Ambrosia artemisiifolia; details: 10 days, 0 to 100 scale (0 no effect, 100 complete control)
Procedure, shortened: as §1

ragweed [21] = assay: Test C preemergence; type: in vivo, Ambrosia artemisiifolia
Procedure, shortened: as §1

foxtail, giant [22] = assay: Test C postemergence; type: in vivo, Setaria faberi; details: 10 days, 0 to 100 scale (0 no effect, 100 complete control)
Excerpt: as §3

ducksalad = assay: Test D flooded paddy test; type: in vivo, Heteranthera limosa; details: 250 g ai/ha, applied to paddy water, visual rating after 13 to 14 days, scale 0 to 100 (0 no effect, 100 complete control)
Procedure, shortened: as §2

corn [23] = assay: Test C postemergence; type: in vivo, Zea mays; details: 10 days, 0 to 100 scale (0 no effect, 100 complete control)
Procedure, shortened: as §1

[24] = 500 g ai/ha, preemergence, 0 to 100 scale (0 no effect, 100 complete control)
[25] = Preemergence, 125 g ai/ha, 0 to 100 scale, 0 no effect, 100 complete control

Cc1cccc2c1OC(C(F)(F)F)CN2C(=O)c1ccnc(-n2cnc(C(C)C)n2)c1 (single isomer, unassigned) [Compound 328]
70: Kochia plant response rating (kochia [4]; [24]) | Plant response rating, Corn (corn [23]; 500 g ai/ha, postemergence)
0: Plant response rating, Horseweed (horseweed; Postemergence, 125 g ai/ha) | Plant response rating, Kochia (kochia [4]; [25]) | Plant response rating, Rice (Flood) (rice) | Plant response rating, Ragweed (ragweed [21]; [25])
20: Plant response rating, Wheat (wheat [6]; [25]) | Plant response rating, Oat, Wild (oat, wild [15]; Postemergence, 125 g ai/ha) | Plant response rating, Corn (corn [23]; Postemergence, 125 g ai/ha)
100: Plant response rating, Galium (galium; 500 g ai/ha, postemergence) | Pigweed, Palmer plant response rating (pigweed, palmer [7]; [24]) | Barnyardgrass plant response rating (barnyardgrass [10]; [24]) | Foxtail, Giant plant response rating (foxtail, giant [11]; [24]) | Plant response rating, Foxtail, Giant (foxtail, giant [11]; [25]) | Plant response rating, Soybean (soybean [12]; 500 g ai/ha, postemergence) | Plant response rating, Soybean (soybean [12]; Postemergence, 125 g ai/ha) | Soybean plant response rating (soybean [13]; [24]) | Plant response rating, Soybean (soybean [13]; [25]) | Ryegrass, Italian plant response rating (ryegrass, Italian [18]; [24])
90: Oat, Wild plant response rating (oat, wild [2]; [24]) | Wheat plant response rating (wheat [6]; [24]) | Plant response rating, Barnyardgrass (barnyardgrass [8]; 500 g ai/ha, postemergence) | Plant response rating, Barnyardgrass (barnyardgrass [10]; [25]) | Plant response rating, Pigweed, Palmer (pigweed, palmer [14]; 500 g ai/ha, postemergence) | Corn plant response rating (corn [17]; [24]) | Plant response rating, Ryegrass, Italian (ryegrass, Italian [18]; [25]) | Plant response rating, Ryegrass, Italian (ryegrass, Italian [19]; 500 g ai/ha, postemergence) | Plant response rating, Foxtail, Giant (foxtail, giant [22]; 500 g ai/ha, postemergence) | Plant response rating, Foxtail, Giant (foxtail, giant [22]; Postemergence, 125 g ai/ha)
40: Plant response rating, Pigweed, Palmer (pigweed, palmer [7]; [25]) | Plant response rating, Oat, Wild (oat, wild [15]; 500 g ai/ha, postemergence) | Plant response rating, Ragweed (ragweed [20]; Postemergence, 125 g ai/ha)
80: Plant response rating, Blackgrass (blackgrass [1]; 500 g ai/ha, postemergence) | Plant response rating, Kochia (kochia [5]; 500 g ai/ha, postemergence) | Plant response rating, Galium (galium; Postemergence, 125 g ai/ha) | Blackgrass plant response rating (blackgrass [9]; [24]) | Plant response rating, Blackgrass (blackgrass [9]; [25])
60: Plant response rating, Blackgrass (blackgrass [1]; Postemergence, 125 g ai/ha) | Plant response rating, Horseweed (horseweed; 500 g ai/ha, postemergence) | Plant response rating, Barnyardgrass (barnyardgrass [8]; Postemergence, 125 g ai/ha) | Plant response rating, Ragweed (ragweed [20]; 500 g ai/ha, postemergence)
50: Plant response rating, Kochia (kochia [5]; Postemergence, 125 g ai/ha) | Plant response rating, Pigweed, Palmer (pigweed, palmer [14]; Postemergence, 125 g ai/ha) | Plant response rating, Ryegrass, Italian (ryegrass, Italian [19]; Postemergence, 125 g ai/ha) | Ragweed plant response rating (ragweed [21]; [24])
15: Plant response rating, Barnyardgrass (Flood) (barnyardgrass [16])
30: Plant response rating, Oat, Wild (oat, wild [2]; [25]) | Plant response rating, Wheat (wheat [3]; 500 g ai/ha, postemergence) | Plant response rating, Wheat (wheat [3]; Postemergence, 125 g ai/ha) | Plant response rating, Corn (corn [17]; [25]) | Plant response rating, Ducksalad (Flood) (ducksalad)
85: Plant response rating, Sedge, Umbrella (Flood) (sedge, umbrella)
